Results published in patent US20110212078A1, “SYNTHESIS AND USE OF HETEROCYCLIC ANTIBACTERIAL AGENTS” (priority 2008, published 2011).

Molecular target: T1, LpxC enzyme (Escherichia coli, UniProt P0A725)
T1 sequence (P0A725 1-305): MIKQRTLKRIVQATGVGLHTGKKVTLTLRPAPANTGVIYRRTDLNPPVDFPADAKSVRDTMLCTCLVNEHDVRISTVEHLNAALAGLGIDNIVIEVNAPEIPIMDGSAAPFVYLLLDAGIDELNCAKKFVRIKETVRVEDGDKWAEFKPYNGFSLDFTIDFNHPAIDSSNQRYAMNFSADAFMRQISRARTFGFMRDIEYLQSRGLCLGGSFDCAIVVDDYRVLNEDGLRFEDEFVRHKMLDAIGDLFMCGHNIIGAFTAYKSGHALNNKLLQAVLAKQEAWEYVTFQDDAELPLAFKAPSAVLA
Test: standard LpxC assay (RapidFire high-throughput mass spectrometry)
Format: biochemical
Conditions: 0.2 nM LpxC enzyme, 1.0 μM UDP-3-O-(R-3-hydroxymyristoyl)-N-acetylglucosamine, 60 minutes at room temperature; read-out: E. coli IC50
Experimental: The standard LpxC assay consists of 0.2 nM LpxC enzyme, 1.0 μM UDP-3-O—(R-3-hydroxymyristoyl)-N-acetylglucosamine, and test compound, in assay buffer and 2% DMSO. Assay buffer is comprised of 25 mM HEPES, pH 7.3, 150 mM NaCl, 2.0 mM DTT, and 0.01% BSA. The enzyme reaction is carried out in a 96-well assay plate, in a final volume of […]. Solutions of test compounds are prepared in 100% DMSO. Reaction additions, in order, are (1) 2.0 μL compound solution, (2) 80 μL of assay buffer, (3) […] of 10 μM UDP-3-O—(R-3-hydroxymyristoyl)-N-acetylglucosamine (in assay buffer) and, (4) 10 μL of LpxC enzyme (20 nM in assay buffer) to initiate the reaction. In positive control reactions, addition (1) has 2.0 μL of 100% DMSO (without compound); these reactions are used as the total signal (TSB) value. Reactions are incubated at room temperature for 60 minutes when 10 μL of 1 N HCl is added to stop the reaction. The plate is shaken by hand for 10 seconds to ensure complete quenching. Assay plates are sealed with foil tape, and stored at −80° C. for 24-48 hr prior to analysis.
The concentrations of substrate and product in the reaction mixtures are determined with BioTrove's proprietary RapidFire™ high-throughput mass spectrometry (HTMS). Assay mixtures are partially purified with reverse phase chromatography, where they are washed with water containing 5 mM ammonium formate and eluted onto the mass spectrometer in 80% acetonitrile, 20% water, and 5 mM ammonium formate. The mass spectrometry peak areas of the substrate and product are measured to determine the concentration of these analytes. The assay signal is the percentage of substrate that is converted to product. Percent inhibition, % I, in test samples is determined from the following equation: […]
Using this method, the following E. coli IC50 (nM) data were obtained for selected Compounds of Formula (I);

Compound | IC50 [µM]
C[C@@H](O)[C@@H](C(=O)NO)N1Cc2cc(Br)ccc2C1=O [Compound 12] | < 5
C[C@@H](O)[C@@H](C(=O)NO)N1Cc2cc(C#Cc3ccccc3)ccc2C1=O [Compound 11] | < 5
C[C@@H](O)[C@@H](C(=O)NO)N1Cc2cc(-c3ccc(-c4ccccc4)cc3)ccc2C1=O [Compound 32] | < 0.05
C[C@@H](O)[C@@H](C(=O)NO)N1Cc2ccc(Cl)cc2C1=O [Compound 21] | < 5
C[C@@H](O)[C@@H](C(=O)NO)N1Cc2cc(N3CCN(c4ccc(C(=O)Cc5ccccc5)cc4)CC3)ccc2C1=O [Compound 50] | < 5
C[C@@H](O)[C@@H](C(=O)NO)N1Cc2cc(Cc3ccc(-c4ccccc4)cc3)ccc2C1=O [Compound 31] | < 0.05
C[C@@H](O)[C@@H](C(=O)NO)N1Cc2ccc(C#Cc3ccccc3)cc2C1=O [Compound 20] | < 5
CC(O)C(C(=O)NO)N1C(=O)c2ccc(Br)cc2C1=O (stereo not shown) [Compound 80] | < 5
C[C@@H](O)[C@@H](C(=O)NO)N1Cc2cc(C#Cc3cccc(-c4ccccc4)c3)ccc2C1=O [Compound 14] | < 5
CC(O)C(C(=O)NO)N1C(=O)c2ccc(C#Cc3ccccc3)cc2C1=O (stereo not shown) [Compound 74] | < 5
CC(O)C(C(=O)NO)n1[nH]c2cc(C#Cc3ccccc3)ccc2c1=O (stereo not shown) [Compound 65] | < 5
C[C@@H](O)[C@@H](C(=O)NO)N1CC2CN(c3ccc(C#Cc4ccccc4)cc3)CCN2C1=O (stereo partly shown) [Compound 91] | < 5
CC(O)C(C(=O)NO)N1C(=O)c2ccc(-c3ccccc3)cc2C1=O (stereo not shown) [Compound 79] | < 5
C[C@@H](O)[C@@H](C(=O)NO)N1Cc2cc(-c3ccccc3)ccc2C1=O [Compound 26] | < 5
C[C@@H](O)[C@@H](C(=O)NO)N1Cc2cc(N3CCN(c4ccccc4)CC3)ccc2C1=O [Compound 52] | < 5
C[C@@H](O)[C@@H](C(=O)NO)N1Cc2cc(C#Cc3ccc(-c4ccccc4)cc3)ccc2C1=O [Compound 13] | < 0.05
C[C@@H](O)[C@@H](C(=O)NO)N1Cc2cc(N3CCC(c4ccc(-c5ccccc5)cc4)CC3)ccc2C1=O [Compound 53] | < 5
C[C@@H](O)[C@@H](C(=O)NO)N1Cc2cc(-c3ccc(C#Cc4ccccc4)cc3)ccc2C1=O [Compound 36] | < 0.05
C[C@@H](O)[C@@H](C(=O)NO)N1CC2CN(Cc3ccc(C#Cc4ccccc4)cc3)CCN2C1=O (stereo partly shown) [Compound 88] | < 5
